{
  "source": "paper PMC9517990",
  "about": "(Communications Biology, 2022)",
  "key": {"[1]": {"biological_target": "neuraminidase of A/South Korea/90207/2020 NA-H275Y + PA-I38T virus (Influenza A virus (A(H1N1)pdm09), UniProt A0A0X9QTS2, H275Y)", "type": "biochemical"}, "[2]": {"biological_target": "neuraminidase of A/South Korea/90207/2020 PA-I38T virus (Influenza A virus (A(H1N1)pdm09), UniProt A0A0X9QTS2)", "type": "biochemical"}, "[3]": {"biological_target": "neuraminidase of A/South Korea/90207/2020 NA-H275Y virus (Influenza A virus (A(H1N1)pdm09), UniProt A0A0X9QTS2, H275Y)", "type": "biochemical"}, "[4]": {"tested_on": "A/South Korea/90207/2020 PA-I38T virus", "type": "cell-based, influenza A(H1N1)pdm09 virus"}, "[5]": {"tested_on": "A/South Korea/90207/2020 NA-H275Y + PA-I38T virus", "type": "cell-based, influenza A(H1N1)pdm09 virus"}, "[6]": {"tested_on": "A/South Korea/90207/2020 NA-H275Y virus", "type": "cell-based, influenza A(H1N1)pdm09 virus"}, "[7]": {"conditions": "read-out: EC50 nM ± SD (column headed IC50; footnote: EC50)"}},
  "data": [
    {"smiles": "CCC(CC)[C@H](NC(C)=O)[C@@H]1[C@H](O)[C@@H](C(=O)O)C[C@H]1N=C(N)N", "note": "[Peramivir, peramivir]", "values": [
      {"measurement": "IC50", "setting": "[1]", "value": 16.2, "unit": "nM"},
      {"measurement": "IC50", "setting": "[2]", "value": 0.26, "unit": "nM"},
      {"measurement": "IC50 fold change compared to WT", "setting": "[2]", "value": 2, "unit": "fold"},
      {"measurement": "IC50", "setting": "[3]", "value": "16.8 ± 3.1", "unit": "nM"}
    ]},
    {"smiles": "O=C1c2c(O)c(=O)ccn2N([C@@H]2c3ccccc3SCc3c2ccc(F)c3F)[C@@H]2COCCN12", "note": "[Baloxavir, Baloxavir acid]", "values": [
      {"measurement": "EC50 fold change compared to WT", "setting": "[4]", "value": 373, "unit": "fold"},
      {"measurement": "EC50", "setting": "[4]; [7]", "value": 380, "unit": "nM"},
      {"measurement": "EC50 fold change compared to WT", "setting": "[5]", "value": 190, "unit": "fold"},
      {"measurement": "EC50", "setting": "[5]; [7]", "value": 194, "unit": "nM"},
      {"measurement": "EC50 fold change compared to WT", "setting": "[6]", "value": 1, "unit": "fold"},
      {"measurement": "EC50", "setting": "[6]; [7]", "value": "1.2 ± 0.3", "unit": "nM"}
    ]}
  ]
}
